Data set [1] concerns liver failure patients. Description: Single-center cohort clinical trial, trimetazidine (TMZ) vs DCA control, liver function indicators ALT/AST. Format: in vivo, human. Particulars: after 5 days of treatment, FIG. 2. The source says:
Evaluate if trimetazidine is capable of improving the liver function of patients with hepatic failure.
The single-center cohort study was adopted as the clinical trial method.
In accordance with relevant references and the results of previous trails, the number of cases shall be no less than 50. Taking into account the number of loss to follow up and possible drop-out (to be controlled around 10%), 60 cases are required to be selected (30 cases for the trial group and 30 cases for the control group).
All serious hepatitis patients enrolled between Aug. 19, 2014 and […] were put in the control group; and all those enrolled between December 9 and the application date were in the trial group.
2. Exclusion Criteria • Patients under 18 or over 70 years old; • patients diagnosed with shock liver (ischemic liver disease); • patients with liver failure in pregnance or HELLP syndrome; • patients with liver failure secondary to malignant tumor in the liver; • patients with refractory hypotension • patients with septic shock; • patients about to receive liver transplant (within 8 hours); • patients allergic to trimetazidine drug; • patients […] of trimetazidine drug; • abuser of drugs and/or alcohol; • pregnant or lactation women; • patients with recent myocardial infarct (within half a year); • patients with serious renal inadequacy.
2. Control group: Diisopropylamine Dichloroacetate (DCA) (80 mg/D) for the control group in this trial, provided by Dandong Yichuang Pharmaceutical Co., Ltd, for a 4-week course of treatment.
3. […] HBV-related liver failure patients were also treated with lamivudine.
1. Alanine aminotransferase (ALT), tested by chromatometry, with products provided by Roche Diagnostics (Shanghai) Ltd.
2. Aspartate transaminase (AST), tested by chromatometry, with products provided by Roche Diagnostics (Shanghai) Ltd.

In data set [2] the test system is patients with liver failure / serious hepatitis. The data set is described as follows: Clinical cases: individual patients given oral TMZ on top of combined treatment. Format: in vivo, human. The source says: Case 1: The patient had past positive HBsAg for over 20 years, during which they took multiple reexaminations of liver function and, as the results of all color ultrasound examinations were within normal range, they were not given any special treatment. Three months before, after catching cold and overwork, they developed abdominal distension and yellow urine, and was admitted to hospital following aggravation of the condition over 6 days. On admission, they were complicated with massive seroperitoneum and serious xanthochromia throughout the skin and mucosa of their whole body, feeling serious nausea, anorexia and feebleness.
Case 2: had had yellow urine for 25 days and dry mouth and bitter taste in mouth for 10 days before they came to the First Affiliated Hospital of Zhengzhou University. […] If they had been treated with the original approach, it would probably have taken two months before they could be discharged from hospital.
Case 3: had past positive HBsAg for 8 years, without regular treatment or periodic reexamination of relevant indicators. […] They took orally some “stomach medicine” (specific medicine not known) with poor effect. After the aforesaid symptoms aggravated for half a month, with urine turning as yellow as strong tea water, they were admitted to the First Affiliated Hospital of Zhengzhou University on Jan. 21, 2015. […] In merely 12 days, the patient achieved decrease of transaminase by dozens of times, relief from the critical condition, alleviated hepatocyte inflammatory responses and a favorable condition for liver cells, and greatly shortened length of hospitalization.
Case 4: […] They felt abdominal distension and nausea, accompanied with hydroncus in lower limbs, when they got tired half a month ago. For further treatment, they were admitted to the First Affiliated Hospital of Zhengzhou University on Jan. 13, 2015. Color ultrasound examination of abdomen detected diffuse changes of echo patterns of liver, cholecystolithiasis and cholecystitis. […] The patient's liver enzyme decreased to normal level after a short period, meeting the requirements for a surgical operation. Following the operation, their abdominal pain disappeared, with liver enzyme back to normal level and improved appetite. Their quality of life improves now without any discomfort.
Case 5: had past positive HBsAg for over 10 years, with HBsAg (+), HBeAg (+) and HBcAb (+), and had atrial fibrillation over 5 years, during which they orally took traditional Chinese medicine intermittently, but without regular treatment. They complained of feebleness, nausea, dry mouth and bitter taste, and anorexia for 6 days, and was hospitalized on Jan. 31, 2015. After admission, they had ALT 1881 u/L, AST 699 u/L, and prothrombin time activity (PTA) at 26%. The patient was extremely weak, in very poor spirits, with very poor appetite. A notice of critical illness diagnosis was given. […] The patient achieved a rapid decrease of transaminase and obvious improvement of liver synthesis function, and was safe from the critical condition. They continued to take the medicine till maturity of the treatment course, to improve the hepatocyte microcirculation and excretion of bilirubin. The patient soon recovered and left hospital.

Data set [3] relates to liver failure patients. Description: Clinical trial involving 165 cases of liver failure, TMZ vs traditional therapeutic approach (general treatment). In kind it is in vivo, human.
For data set [4] the following is noted: in vivo; listed as trimetazidine, dihydrochloride; cited from earlier work.
The mark [5] stands for this setting: Case 5, one week plus another 5 days of TMZ.

As to Diisopropylamine Dichloroacetate [DCA], in the data set with liver failure patients [1], the “ALT decrease (k, mathematical model analysis)” value came to 67.325 and the “AST decrease (k, mathematical model analysis)” value is listed as 142.77.

Turning to `COc1ccc(CN2CCNCC2)c(OC)c1OC.Cl.Cl` [TMZ, 1-[2,3,4-trimethoxybenzyl] piperazine dihydrochloride], the “ALT decrease (k, mathematical model analysis)” value in the data set with liver failure patients [1] was 259.4. Moreover, the “AST decrease (k, mathematical model analysis)” value in the data set on liver failure patients [1] was determined as 362.53. For the same molecule, the AST in data set [2] (Case 1, 12 days after start of TMZ, on admission AST 303 u/L) was determined as 68 u/L; in data set [2] (Case 2, oral TMZ for 20 days, on admission AST 484 u/L), 52 u/L; in data set [2] (Case 3, reexamination February 5, on admission AST 1368 u/L) it was 85 u/L; in data set [2] (Case 4, oral TMZ for 13 days, on admission AST 663 u/L) it was 79 u/L; in data set [2] (Case 5, one week after start of oral TMZ, after admission AST 699 u/L) it was 77 u/L; in data set [2] (setting [5]), 226 u/L. Further, the ALT in data set [2] (Case 1, HBsAg positive, 12 days after start of TMZ 1 tablet 3 times a day, on admission ALT 270 u/L) is 41 u/L; in data set [2] (Case 2, serious drug-induced hepatitis, oral TMZ for 20 days, on admission ALT 983 u/L), 95 u/L; in data set [2] (Case 3, acute-on-chronic liver failure, admitted Jan. 21, 2015, reexamination February 5, on admission ALT 1386 u/L), 76 u/L; in data set [2] (Case 4, HBsAg positive, oral TMZ for 13 days, on admission ALT 599 u/L), 66 u/L; in data set [2] (Case 5, one week after start of oral TMZ, after admission ALT 1881 u/L), 255 u/L; in data set [2] (setting [5]), 117 u/L. The total bilirubin in data set [2] (Case 2, oral TMZ for 20 days, on admission 401.9 umol/L) worked out at 130 µmol/L. Moreover, the “prothrombin time activity (PTA)” value in data set [2] (Case 3, reexamination February 5, on admission 27.4%) turned out to be 57.8%; in data set [2] (Case 5, one week after start of oral TMZ, after admission 26%), 48%; in data set [2] (setting [5]), 50%. Further, in the data set on liver failure patients [3] (TMZ 20 mg tablet orally 3 times a day, 4 weeks, traditional therapeutic approach 44%, FIG. 5), the 30-day immortality rate entry is “approximately 18%”. Further, the 90-day immortality rate in the data set on liver failure patients [3] (TMZ 20 mg tablet orally 3 times a day, 4 weeks, traditional therapeutic approach 68%, FIG. 5) was determined as 35%. Also, the “decrease rate of alanine aminotransferase and aspartate transaminase” value in the data set on liver failure patients [3] (laboratory test indicators, FIG. 3) is “significantly raise the decrease rate”. Further, the “serious adverse reaction during the clinical trial” value in the data set with liver failure patients [3] (liver failure patients) was “no serious adverse reaction occurred”. Further, in the data set with liver failure patients [3] (one liver failure patient, before vs after taking TMZ, FIG. 4), the “hepatic glucose metabolism (PET-CT)” value is recorded as “remarkably improved”. The elimination half-life result in data set [4] is “approximately 6 hours”.

Values taken from patent US20180153886A1, “USE OF TR[…] PREPARATION OF DRUGS FOR PREVENTING AND TREATING LIVER DISEASES” (priority 2015, published 2018).
